Reference: patent US4985449A, “N-benzoyl-N-pyridyloxy phenyl urea compounds and pesticide compositions containing them” (Ishihara Sangyo Kaisha Ltd., priority 1986, dated 1991)
Blank lines part the entries; values can stand above or below the molecule they belong to.

Key:
[1] = tested on: house fly (Musca domestica); assay: Egg hatch inhibition test by the treatment of adults of house fly (Test Example 6); assay type: in vivo; conditions: po, 100 μg/g in diet of adult females for 3 days, unhatched eggs assessed one day after collection, read-out: ratio of the egg hatch inhibition (REHI)
Description: Sugar and skim milk were mixed in a weight ratio of 1:1, and 2 g of the mixture was put into a Petri dish having a diameter of 5.5 cm. 0.5 ml of an acetone solution containing the active ingredient was added to the mixture in the Petri dish. After acetone evaporated, the treated mixture was thoroughly mixed, and the concentration of the active ingredient was adjusted to 100 μg/g. Twenty non-mating females of house fly (Musca domestica) were allowed to feed on the poisoned diet (the treated mixture) in a cage. After 3 days, the diet was changed to the untreated mixture, then 20 non-mating males were released into the cage for mating. On the 3rd day after release, a cup of the medium for rearing fly larvae was set in the cage for oviposition for 7 hours. The egg laid on the medium were collected and kept on the moistened filter paper in a Petri dish. One day later, unhatched eggs were assessed and the ratio of the egg hatch inhibition (REHI) was calculated by the following equation: [formula]

[2] = tested on: two-spotted spider mite (Tetranychus urticae); assay: Miticidal test against two-spotted spider mite (Test Example 1); assay type: in vivo; conditions: 120 h, 200 ppm, 5th day after treatment, larvae and nimphs on French bean, 26° C.
Text: Each formulation containing an active ingredient was dispersed in water to obtain a dispersion of each active ingredient having a concentration of 800 or 200 ppm. Each of French bean seedlings with only on primary leaf left, was transplanted to a cup having a diameter of 7 cm and a height of 4 cm. About 30 larvae and […] of two-spotted spider mite (Tetranychus urticae) were infested to the leaf of the French bean. Then, the French bean was dipped in the dispersion having the concentration of 800 ppm or 200 ppm for about 10 seconds, then dried in air and kept in a constant temperature chamber with lightening at 26° C. On the 5th day after the treatment, dead mites were counted, and the mortality was calculated by the following equation: [formula]

[3] = tested on: common cutworm (Spodoptera litura); assay: Insecticidal test against common cutworm (Test Example 3); assay type: in vivo; conditions: 168 h, second or third instar larvae, 7th day after release
Text: (§1) Each formulation containing an active ingredient was dispersed in water to obtain a dispersion of each active ingredient having a concentration of 10 ppm. Leaves of cabbage were dipped in the respective dispersions for about 10 seconds, and then dried in air. A sheet of moistened filter paper was placed in a Petri dish having a diameter of 9 cm, and the dried leaves of cabbage were put on the filter paper. Larvae of diamondback moth (Plutella xylostella) in second or third instar were released on the leaves, and the Petri dishes were covered and kept in a constant temperature chamber with lightening at a temperature of 26° C. On the 7th day after release, dead insects were counted, and the mortality was calculated by the following equation: […]
(§2) The tests were conducted in the same manner as in Test Example 2 except that larvae of common cutworm (Spodoptera litura) in second or third instar were used instead of larvae of the diamondback moth in second or third instar, and the concentration of the active ingredient was changed from 10 ppm to 800 ppm or 1 ppm.

[4] = tested on: diamondback moth (Plutella xylostella); assay: Insecticidal test against diamondback moth (Test Example 2); assay type: in vivo; conditions: 168 h, second or third instar larvae, 7th day after release, 26° C.
Text: as §1

Common cutworm = assay: Insecticidal test (C-value) against common cutworm (Test Example 7-I); assay type: in vivo; conditions: Spodoptera litura, 168 h; minimum concentration at which no less than 90% of insects are killed
Text: as §1, §2
(§3) In the same manner as in Test Examples 2 and 3, insecticidal tests against diamondback moth and common cutworm were conducted with respect to each compound, and the minimum concentrations at which no less than 90% of insects are killed (hereinafter referred to as C-value), were obtained.

Diamondback moth = assay: Insecticidal test (C-value) against diamondback moth (Test Example 7-I); assay type: in vivo; conditions: Plutella xylostella, 168 h; minimum concentration at which no less than 90% of insects are killed
Text: as §1, §3

Daphnia magna Straus = assay: Acute Immobilisation Test against Daphnia magna Straus (Test Example 7-II); assay type: in vivo; conditions: first instar larvae; up to 48 hours; 23±1° C.; OECD guideline; Probit method
Description: An acetone solution of each compound was dispersed in water to obtain test solutions having various concentrations of the active ingredient. 250 ml of each test solution was introduced into a 430 ml glass beaker. Into each beaker, 10 first instar larvae born within 24 hours were released and kept at the solution temperature of 23±1° C. The immobilisation up to 48 hours after the release of the larvae was investigated in accordance with the OECD test guideline. The test was repeated 2-3 times in two series for each concentration. The 50% immobilisation concentration (EC50, ppb) was obtained by Probit method.

[5] = Residual test in soil (Test Example 7-III); conditions: upland volcanic ash soil, irrigated condition; 5 ppm; 20 days; 30° C.
Description: Upland soil (volcanic ash soil) was screened through a sieve with a mesh size of 5 mm, and 20 g by dry weight basis of the soil was put into a 100 ml Erlenmeyer flask. Then, distilled water was introduced to simulate an irrigated condition with a water depth of 1 cm. An aluminum foil was put on the top of the flask, and the flask was left to stand still for 1 week in an incubator (dark place) at 30° C.
0.5 ml of a 200 ppm dispersion in acetone of each compound (100 μg) was added to the flask by means of a pipet (to a concentration of 5 ppm). The flask was closed and thoroughly shaked, and the soil attached to the closure was washed into the flask with a small amount of water. Then, the top of the flask was covered with an aluminum foil, and the flask was subjected to incubation in a growth cabinet (30° C., humidity: 60%, continuously lighted with a fluorescent lamp with 9,000 lux). 20 Days later, the total 20 g of the soil was subjected to analysis, and the remaining amount of the compound was measured.

SMILES: CN(C(=O)NC(=O)c1c(F)cccc1F)c1ccc(Oc2ccc(C(F)(F)F)cc2Cl)c(F)c1F [Compound No. 5, N-[4-(2-chloro-4-trifluoromethylphenoxy)-2,3-difluorophenyl]-N'-(2,6-difluorobenzoyl)-N-methylurea]
inhibition at 100 µg/g [1]: 100%

SMILES: CN(C(=O)NC(=O)c1c(F)cccc1F)c1ccc(Oc2ccc(C(F)(F)F)cc2Cl)cc1 [Compound No. 18, N-[4-(2-chloro-4-trifluoromethylphenoxy)phenyl]-N'-(2,6-difluorobenzoyl)-N-methylurea]
mortality at 200 ppm [2]: 100%

SMILES: CN(C(=O)NC(=O)c1c(F)cccc1F)c1ccc(-c2ccc(Br)cc2)cc1 [Compound No. 29, N-(4'-bromo-4-biphenylyl)-N'-(2,6difluorobenzoyl)-N-methylurea]
mortality at 1 ppm [3]: 100%
inhibition at 100 µg/g [1]: 100%

SMILES: CN(C(=O)NC(=O)c1c(F)cccc1F)c1ccc(-c2ccc(Cl)cc2)c(F)c1 [Compound No. 31, N-[4'-chloro-2-fluoro-4biphenylyl)-N'-(2,6-difluorobenzoyl)-N-methylurea]
inhibition at 100 µg/g [1]: 100%

SMILES: Cc1cc(N(C)C(=O)NC(=O)c2c(F)cccc2F)ccc1Oc1ncc(C(F)(F)F)cc1Cl [Compound No. 76]
mortality at 10 ppm [4]: 100%

SMILES: CN(C(=O)NC(=O)c1ccccc1Br)c1ccc(Oc2ncc(C(F)(F)F)cc2Cl)cc1 [Compound No. 80]
mortality at 1 ppm [3]: 100%

SMILES: CN(C(=O)NC(=O)c1c(F)cccc1F)c1ccc(Oc2ncc(C(F)(F)F)cc2Cl)c(Cl)c1 [compound 15, N-[3-chloro-4-(3-chloro-5-trifluoromethyl-2-pyridyloxy)-phenyl]-N'-(2,6-difluorobenzoyl)-N-methylurea]
inhibition at 100 µg/g [1]: 100%

SMILES: Cc1cc(Oc2ncc(C(F)(F)F)cc2Cl)ccc1N(C)C(=O)NC(=O)c1c(F)cccc1F [compound 20, N-[4-(3-chloro-5-trifluoromethyl-2-pyridyloxy)-2-methylphenyl]-N'-(2,6-difluorobenzoyl)-N-methylurea]
inhibition at 100 µg/g [1]: 100%

SMILES: CN(C(=O)NC(=O)c1c(F)cccc1F)c1ccc(Oc2ccc(SC(F)(F)F)cc2)cc1 [compound 39]
mortality at 10 ppm [4]: 100%

SMILES: CN(C(=O)NC(=O)c1c(F)cccc1F)c1ccc(Oc2ccc(C(F)(F)F)cc2)cc1 [compound 40]
mortality at 10 ppm [4]: 90%

SMILES: CN(C(=O)NC(=O)c1c(F)cccc1F)c1ccc(Oc2ccc(S(=O)(=O)C(F)(F)F)cc2)cc1 [compound 41]
mortality at 10 ppm [4]: 100%

SMILES: CN(C(=O)NC(=O)c1c(F)cccc1F)c1ccc(Oc2ccc([N+](=O)[O-])cc2Cl)cc1 [compound 62]
mortality at 1 ppm [3]: 100%

SMILES: Cc1ccccc1C(=O)NC(=O)N(C)c1ccc(Oc2ccc(C(F)(F)F)cc2Cl)c(F)c1 [compound 63]
mortality at 1 ppm [3]: 100%

SMILES: Cc1cc(N(C)C(=O)NC(=O)c2ccccc2C)ccc1Oc1ccc(C(F)(F)F)cc1Cl [compound 64]
mortality at 1 ppm [3]: 90%

SMILES: Cc1cc(N(C)C(=O)NC(=O)c2c(F)cccc2F)cc(C)c1Oc1ccc(C(F)(F)F)cc1Cl [compound 65]
mortality at 1 ppm [3]: 100%

SMILES: Cc1ccccc1C(=O)NC(=O)N(C)c1cc(C)c(Oc2ccc(C(F)(F)F)cc2Cl)c(C)c1 [compound 66]
mortality at 1 ppm [3]: 100%

SMILES: CN(C(=O)NC(=O)c1c(F)cccc1F)c1ccc(Oc2ncc(Cl)cc2C(F)(F)F)cc1 [compound 74]
mortality at 1 ppm [3]: 100%

SMILES: COc1cc(N(C)C(=O)NC(=O)c2c(F)cccc2F)ccc1Oc1ncc(C(F)(F)F)cc1Cl [compound 75]
mortality at 10 ppm [4]: 90%
mortality at 1 ppm [3]: 90%

SMILES: Cc1cc(N(C)C(=O)NC(=O)c2ccccc2Cl)ccc1Oc1ncc(C(F)(F)F)cc1Cl [compound 77, N-{4-[3-chloro-5-trifluoromethyl-2-pyridyloxy]-3-methylphenyl}-N'-(2-chlorobenzoyl)-N-methylurea]
mortality at 10 ppm [4]: 100%

SMILES: CN(C(=O)NC(=O)c1c(F)cccc1F)c1ccc(-c2ccc(C(F)(F)F)cc2)cc1 [compound 108]
mortality at 10 ppm [4]: 100%
mortality at 1 ppm [3]: 100%
mortality at 800 ppm [3]: 100%

SMILES: Cc1cc(-c2ccc(Br)cc2)ccc1N(C)C(=O)NC(=O)c1c(F)cccc1F [compound 109]
mortality at 10 ppm [4]: 100%
mortality at 1 ppm [3]: 100%
mortality at 800 ppm [3]: 100%

SMILES: Cc1ccc(N(C)C(=O)NC(=O)c2c(F)cccc2F)cc1Oc1ccc(C(F)(F)F)cc1Cl [compound 115]
mortality at 1 ppm [3]: 100%

SMILES: CN(C(=O)NC(=O)c1c(F)cccc1F)c1ccc(N(C)c2ncc(C(F)(F)F)cc2Cl)cc1 [compound 125]
mortality at 10 ppm [4]: 100%
mortality at 1 ppm [3]: 100%
mortality at 800 ppm [3]: 100%

SMILES: CN(C(=O)NC(=O)c1c(F)cccc1F)c1ccc(N(C)c2ccc(C(F)(F)F)cc2Cl)cc1 [compound 126]
mortality at 10 ppm [4]: 100%
mortality at 1 ppm [3]: 100%
mortality at 800 ppm [3]: 100%

Remaining rate in the soil [5]: 76%
SMILES: CN(C(=O)NC(=O)c1c(F)cccc1F)c1ccc(Oc2ccc(C(F)(F)F)cc2Cl)c(F)c1 [drawing 47 (R=CH3)]
minimal effective concentration (Common cutworm): 0.04 µg/mL
minimal effective concentration (Diamondback moth): 0.08 µg/mL
EC50 of Daphnia magna Straus (50% immobilisation concentration) (Daphnia magna Straus): 150 ppb

Remaining rate in the soil [5]: 91%
SMILES: O=C(NC(=O)c1c(F)cccc1F)Nc1ccc(Oc2ccc(C(F)(F)F)cc2Cl)c(F)c1 [drawing 47 (R=H), reference compound]
minimal effective concentration (Common cutworm): 0.04 µg/mL
minimal effective concentration (Diamondback moth): 0.08 µg/mL
EC50 of Daphnia magna Straus (50% immobilisation concentration) (Daphnia magna Straus): < 0.4 ppb

Remaining rate in the soil [5]: 49%
SMILES: CN(C(=O)NC(=O)c1c(F)cccc1F)c1ccc(Oc2ccc(C(F)(F)F)cc2Cl)cc1 [drawing 48 (R=CH3)]
minimal effective concentration (Common cutworm): 0.02 µg/mL
minimal effective concentration (Diamondback moth): 0.02 µg/mL
EC50 of Daphnia magna Straus (50% immobilisation concentration) (Daphnia magna Straus): 50 ppb

Remaining rate in the soil [5]: 84%
SMILES: O=C(NC(=O)c1c(F)cccc1F)Nc1ccc(Oc2ccc(C(F)(F)F)cc2Cl)cc1 [drawing 48 (R=H), reference compound]
minimal effective concentration (Common cutworm): 0.08 µg/mL
minimal effective concentration (Diamondback moth): 0.08 µg/mL
EC50 of Daphnia magna Straus (50% immobilisation concentration) (Daphnia magna Straus): < 0.4 ppb

Remaining rate in the soil [5]: 45%
SMILES: CN(C(=O)NC(=O)c1c(F)cccc1F)c1ccc(-c2ccc(Br)cc2)cc1 [drawing 49 (R=CH3)]
minimal effective concentration (Common cutworm): 0.04 µg/mL
minimal effective concentration (Diamondback moth): 0.02 µg/mL
EC50 of Daphnia magna Straus (50% immobilisation concentration) (Daphnia magna Straus): 150 ppb

Remaining rate in the soil [5]: 77%
SMILES: O=C(NC(=O)c1c(F)cccc1F)Nc1ccc(-c2ccc(Br)cc2)cc1 [drawing 49 (R=H), reference compound]
minimal effective concentration (Common cutworm): 0.6 µg/mL
minimal effective concentration (Diamondback moth): 0.3 µg/mL
EC50 of Daphnia magna Straus (50% immobilisation concentration) (Daphnia magna Straus): < 0.8 ppb
